Reference: ChEMBL document CHEMBL1201862, “PubChem BioAssay data set” (2004)
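Five compound concentrations were applied to cells in 96-well plates for 48 hours; endpoints were derived by simple linear interpolation of the resulting dose-response curve. GI50 is the concentration that inhibits growth by half.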 The source made the active and inactive calls. Cut-off read from the data, not from the text of the source: active = GI50 up to about 1.1 µM and inactive = higher.

Assays:
Assay in all cases: NCI-60 cell line screen, 48 h
A549 = tested on: A549
HCT-116 = tested on: HCT-116
HCT-15 = tested on: HCT-15
HL-60 = tested on: HL-60
HT-29 = tested on: HT-29
KM12 = tested on: KM12
LOX IMVI = tested on: LOX IMVI
MDA-N = tested on: MDA-N
NCI-H226 = tested on: NCI-H226
NCI-H23 = tested on: NCI-H23
NCI-H522 = tested on: NCI-H522
NCI/ADR-RES = tested on: NCI/ADR-RES
SF-268 = tested on: SF-268
SF-539 = tested on: SF-539
SK-MEL-2 = tested on: SK-MEL-2
SK-OV-3 = tested on: SK-OV-3
SR = tested on: SR
SW-620 = tested on: SW-620
TK-10 = tested on: TK-10
U-251 = tested on: U-251

| SMILES | GI50 (A549) | GI50 (HCT-116) | GI50 (HCT-15) [µM] | GI50 (HL-60) | GI50 (HT-29) | GI50 (KM12) | GI50 (LOX IMVI) | GI50 (MDA-N) | GI50 (NCI-H226) | GI50 (NCI-H23) | GI50 (NCI-H522) | GI50 (NCI/ADR-RES) | GI50 (SF-268) | GI50 (SF-539) | GI50 (SK-MEL-2) | GI50 (SK-OV-3) | GI50 (SR) | GI50 (SW-620) | GI50 (TK-10) | GI50 (U-251) |
| --- | --- | --- | --- | --- | --- | --- | --- | --- | --- | --- | --- | --- | --- | --- | --- | --- | --- | --- | --- | --- |
| [N-]=[N+]=NC[C@H]1OCO[C@H](CN=[N+]=[N-])[C@@H](OCCOCCCl)[C@@H]1OCCOCCCl | > 100 µM (inactive) | > 100 µM (inactive) | > 100 | > 100 µM (inactive) | > 100 µM (inactive) | > 100 µM (inactive) | > 100 µM (inactive) | > 100 µM (inactive) | > 100 µM (inactive) | > 100 µM (inactive) | > 100 µM (inactive) | > 100 µM (inactive) | > 100 µM (inactive) | > 100 µM (inactive) | > 100 µM (inactive) | > 100 µM (inactive) | > 100 µM (inactive) | > 100 µM (inactive) | > 100 µM (inactive) | > 100 µM (inactive) |
| CN(C)CCNC1=CC(=O)c2nc3ccccc3c3ccnc1c23 | 4.52 µM (inactive) | 2.88 µM (inactive) | 3.23 | 3.83 µM (inactive) | 2.58 µM (inactive) | 3.34 µM (inactive) | 2.04 µM (inactive) | 7.78 µM (inactive) | 2.04 µM (inactive) | 5.56 µM (inactive) | 2.94 µM (inactive) | 4.13 µM (inactive) | 4.53 µM (inactive) | 3.98 µM (inactive) | 7.38 µM (inactive) | 10.1 µM (inactive) | 2.25 µM (inactive) | 4.42 µM (inactive) | 8.2 µM (inactive) | 8.26 µM (inactive) |
| COc1cc(NC(C)=O)ccc1C(=O)N/N=C/c1ccc(Cl)cc1Cl | 48 µM (inactive) | 80.5 µM (inactive) | 83 | 46.6 µM (inactive) | > 100 µM (inactive) | 33 µM (inactive) | 69.2 µM (inactive) | 23.6 µM (inactive) | 77.1 µM (inactive) | 71.9 µM (inactive) | 45.2 µM (inactive) | > 100 µM (inactive) | 32.6 µM (inactive) | 87.7 µM (inactive) | 19.2 µM (inactive) | 29.7 µM (inactive) | 18.2 µM (inactive) | > 100 µM (inactive) |  |  |
| CCOC(=O)c1c(-c2ccc(Cl)cc2)c(C#N)c(=S)n(C2OC(COC(C)=O)C(OC(C)=O)C(OC(C)=O)C2OC(C)=O)c1C (stereo not drawn) | > 100 µM (inactive) | > 100 µM (inactive) | > 100 | > 100 µM (inactive) | > 100 µM (inactive) | > 100 µM (inactive) | > 100 µM (inactive) | > 100 µM (inactive) | > 100 µM (inactive) | > 100 µM (inactive) | > 100 µM (inactive) | > 100 µM (inactive) | > 100 µM (inactive) | > 100 µM (inactive) | 1.77 µM (inactive) | > 100 µM (inactive) | > 100 µM (inactive) | > 100 µM (inactive) | > 100 µM (inactive) | > 100 µM (inactive) |
